Source: ChEMBL document CHEMBL1155703, “Sequences and antimycoplasmic properties of longibrachins LGB II and LGB III, two novel 20-residue peptaibols from Trichoderma longibrachiatum” (J Nat Prod, 2001)
Converted amounts (≈) assume the structure as drawn.

Legend:
[1] = system: Mycoplasma mycoides subsp. mycoides SC; test: Antimicrobial activity against Mycoplasma mycoides subsp. mycoides SC KH3J after 2 hrs; assay type: functional
[2] = system: Acholeplasma laidlawii; test: Antimicrobial activity against Acholeplasma laidlawii PG-8A after 2 hrs; assay type: functional; conditions: for MIC: Acholeplasma laidlawii, PG-8A, 2 h
[3] = system: Spiroplasma floricola; test: Antimicrobial activity against Spiroplasma floricola BNR1 after 2 hrs; assay type: functional; conditions: for MIC: Spiroplasma floricola, BNR1, 2 h
[4] = system: Spiroplasma apis; test: Antimicrobial activity against Spiroplasma apis B31 after 2 hrs; assay type: functional; conditions: for MIC: Spiroplasma apis, B31, 2 h
[5] = Bilayer membrane permeabilization assessed as lipid to peptide ratio allowing 50% leakage of entrapped carboxyfluorescein from egg phosphatidylcholine-cholesterol liposomes at 1.1 uM at 20 mins by spectrofluorimetry; assay type: physicochemical
[6] = system: Spiroplasma citri; test: Antimicrobial activity against Spiroplasma citri R8A2 after 2 hrs; assay type: functional; conditions: R8A2, 2 h
[7] = system: Mycoplasmoides gallisepticum; test: Antimicrobial activity against Mycoplasma gallisepticum S6 after 2 hrs; assay type: functional; conditions: for MIC: Mycoplasmoides gallisepticum, S6, 2 h
[8] = Bilayer membrane permeabilization assessed as lipid to peptide ratio allowing 50% leakage of entrapped carboxyfluorescein from egg phosphatidylcholine-cholesterol liposomes at 0.21 uM at 20 mins by spectrofluorimetry; assay type: physicochemical
[9] = Bilayer membrane permeabilization assessed as lipid to peptide ratio allowing 50% leakage of entrapped carboxyfluorescein from egg phosphatidylcholine-cholesterol liposomes at 0.49 uM at 20 mins by spectrofluorimetry; assay type: physicochemical
[10] = Bilayer membrane permeabilization assessed as lipid to peptide ratio allowing 50% leakage of entrapped carboxyfluorescein from egg phosphatidylcholine-cholesterol liposomes at 0.40 uM at 20 mins by spectrofluorimetry; assay type: physicochemical; conditions: 0.4 µM
[11] = Bilayer membrane permeabilization assessed as lipid to peptide ratio allowing 50% leakage of entrapped carboxyfluorescein from egg phosphatidylcholine-cholesterol liposomes at 0.13 uM at 20 mins by spectrofluorimetry; assay type: physicochemical
[12] = Bilayer membrane permeabilization assessed as lipid to peptide ratio allowing 50% leakage of entrapped carboxyfluorescein from egg phosphatidylcholine-cholesterol liposomes at 0.36 uM at 20 mins by spectrofluorimetry; assay type: physicochemical

SMILES | MIC [1] [µM] | MIC [2] [µM] | MIC [3] [µM] | MIC [4] [µM] | MIC [6] [µM] | MIC [7] [µM] | other results
CC[C@@](C)(NC(=O)C(C)(C)NC(=O)[C@@H](NC(=O)[C@@H]1CCCN1C(=O)C(C)(C)NC(=O)[C@H](CC(C)C)NC(=O)CNC(=O)C(C)(C)NC(=O)[C@@H](NC(=O)C(C)(C)NC(=O)[C@H](CCC(N)=O)NC(=O)[C@H](C)NC(=O)C(C)(C)NC(=O)[C@H](C)NC(=O)C(C)(C)NC(=O)[C@H](C)NC(=O)C(C)(C)NC(C)=O)C(C)C)C(C)C)C(=O)N[C@@H](CCC(=O)O)C(=O)N[C@@H](CCC(N)=O)C(=O)N[C@H](CO)Cc1ccccc1 | 6.25 (≈ 12.2 µg/mL) | 1.56 (≈ 3.05 µg/mL) | 12.5 (≈ 24.4 µg/mL) | 12.5 (≈ 24.4 µg/mL) | 6.25 (≈ 12.2 µg/mL) | 6.25 (≈ 12.2 µg/mL) | MLC [2]: 3.12 µM (≈ 6.09 µg/mL); MLC [3]: 3.12 µM (≈ 6.09 µg/mL); MLC [4]: 3.12 µM (≈ 6.09 µg/mL); Ratio [5]: 540; MLC [7]: 3.12 µM (≈ 6.09 µg/mL)
CC[C@@](C)(NC(=O)C(C)(C)NC(=O)[C@@H](NC(=O)[C@@H]1CCCN1C(=O)C(C)(C)NC(=O)[C@H](CC(C)C)NC(=O)CNC(=O)C(C)(C)NC(=O)[C@@H](NC(=O)C(C)(C)NC(=O)[C@H](CCC(N)=O)NC(=O)[C@H](C)NC(=O)C(C)(C)NC(=O)[C@H](C)NC(=O)C(C)(C)NC(=O)[C@H](C)NC(=O)C(C)(C)NC(C)=O)C(C)C)C(C)C)C(=O)N[C@@H](CCC(N)=O)C(=O)N[C@@H](CCC(N)=O)C(=O)N[C@@H](CO)Cc1ccccc1 | – | – | – | – | – | – | Ratio [8]: 2860
CC[C@@](C)(NC(=O)C(C)(C)NC(=O)[C@H](C)NC(=O)[C@H](CO)NC(=O)C(C)(C)NC(C)=O)C(=O)N[C@@H](CCC(N)=O)C(=O)NC(C)(C)C(=O)N[C@H](C(=O)NC(C)(C)C(=O)NCC(=O)N[C@@H](CC(C)C)C(=O)NC(C)(C)C(=O)N1CCC[C@H]1C(=O)N[C@@H](CC(C)C)C(=O)NC(C)(C)C(=O)NC(C)(C)C(=O)N[C@@H](CCC(N)=O)C(=O)N[C@H](CO)Cc1ccccc1)C(C)C [listing 1 of 2 here] | – | – | – | – | – | – | Ratio [9]: 1220
CC[C@@](C)(NC(=O)C(C)(C)NC(=O)[C@H](C)NC(=O)[C@H](CO)NC(=O)C(C)(C)NC(C)=O)C(=O)N[C@@H](CCC(N)=O)C(=O)NC(C)(C)C(=O)N[C@H](C(=O)NC(C)(C)C(=O)NCC(=O)N[C@@H](CC(C)C)C(=O)NC(C)(C)C(=O)N1CCC[C@H]1C(=O)N[C@@H](CC(C)C)C(=O)NC(C)(C)C(=O)NC(C)(C)C(=O)N[C@@H](CCC(N)=O)C(=O)N[C@H](CO)Cc1ccccc1)C(C)C [listing 2 of 2 here] | 12.5 (≈ 22.3 µg/mL) | 3.12 (≈ 5.56 µg/mL) | 25 (≈ 44.6 µg/mL) | 12.5 (≈ 22.3 µg/mL) | 12.5 (≈ 22.3 µg/mL) | 6.25 (≈ 11.1 µg/mL) | –
CC[C@@](C)(NC(=O)C(C)(C)NC(=O)[C@@H](NC(=O)[C@@H]1CCCN1C(=O)C(C)(C)NC(=O)C(C)(C)NC(=O)CNC(=O)C(C)(C)NC(=O)C(C)(C)NC(=O)[C@H](CC(C)C)NC(=O)C(C)(C)NC(=O)[C@H](CCC(N)=O)NC(=O)C(C)(C)NC(=O)[C@H](C)NC(=O)C(C)(C)NC(=O)[C@H](C)NC(=O)C(C)(C)NC(C)=O)C(C)C)C(=O)N[C@@H](CCC(N)=O)C(=O)N[C@@H](CCC(N)=O)C(=O)N[C@H](CO)Cc1ccccc1 | – | – | – | – | – | – | Ratio [10]: 1000
CC[C@@](C)(NC(=O)C(C)(C)NC(=O)[C@@H](NC(=O)[C@@H]1CCCN1C(=O)C(C)(C)NC(=O)[C@H](CC(C)C)NC(=O)CNC(=O)C(C)(C)NC(=O)[C@@H](NC(=O)C(C)(C)NC(=O)[C@H](CCC(N)=O)NC(=O)C(C)(C)NC(=O)C(C)(C)NC(=O)[C@H](C)NC(=O)C(C)(C)NC(=O)[C@H](C)NC(=O)C(C)(C)NC(C)=O)C(C)C)C(C)C)C(=O)N[C@@H](CCC(N)=O)C(=O)N[C@@H](CCC(N)=O)C(=O)N[C@H](CO)Cc1ccccc1 | 6.25 (≈ 12.3 µg/mL) | 0.78 (≈ 1.53 µg/mL) | 6.25 (≈ 12.3 µg/mL) | 6.25 (≈ 12.3 µg/mL) | 3.12 (≈ 6.13 µg/mL) | 6.25 (≈ 12.3 µg/mL) | Ratio [11]: 4545; MLC [2]: 3.12 µM (≈ 6.13 µg/mL); MLC [3]: 3.12 µM (≈ 6.13 µg/mL); MLC [4]: 3.12 µM (≈ 6.13 µg/mL); MLC [7]: 3.12 µM (≈ 6.13 µg/mL)
CC[C@@](C)(NC(=O)C(C)(C)NC(=O)[C@@H](NC(=O)[C@@H]1CCCN1C(=O)C(C)(C)NC(=O)[C@H](CC(C)C)NC(=O)CNC(=O)C(C)(C)NC(=O)[C@@H](NC(=O)C(C)(C)NC(=O)[C@H](CCC(N)=O)NC(=O)[C@H](C)NC(=O)C(C)(C)NC(=O)[C@H](C)NC(=O)C(C)(C)NC(=O)[C@H](C)NC(=O)C(C)(C)NC(C)=O)C(C)C)C(C)C)C(=O)N[C@@H](CCC(=O)O)C(=O)N[C@@H](CCC(N)=O)C(=O)N[C@H](COC)Cc1ccccc1 | – | – | – | – | – | – | Ratio [12]: 2500
